Reference: patent publication US20260085077A1, “HETEROCYCLIC DERIVATIVES AS JANUS KINASE INHIBITORS” (CHIESI FARMACEUTICI S.P.A., priority 2022, published 2026)

test system: IL-13 induced pSTAT6 in BEAS-2B human cell line; assay: Inhibition of IL-13 induced pSTAT6 in BEAS; format: cell-based; settings: IL-13 induced pSTAT6, BEAS-2B cells, ELISA
Protocol: BEAS-2B human cell line was seeded (100.000 cells/well) and incubated for 48 h at 37° C., 5% CO2, 95% humidity. Compounds were added and incubated 30 min followed by IL-13 as trigger. After 30 min incubation, cells were lysed and pSTAT6 determined by Fastscan phospho-stat6 (Tyr641) sandwich ELISA kit (cell signaling). Inhibitors were tested at 11 consecutive […] dilutions starting from 10 μM (10 μM-40 pM) in duplicate. Calculation of IC50 data, curves and QC analysis were made using Excel tools and GraphPadPrism software. QC criteria parameters: Z′≥0.35, Hill Slope range 0.5 to 5, S:B>2.

First: COc1cc2c(cc1-n1nc(C(=O)NCCCN3CCC(F)(F)CC3)c3cnc(-c4cnn5cccnc45)cc31)OCCN2 [Example 14, N-(3-(4,4-difluoropiperidin-1-yl)propyl)-1-(6-methoxy-3,4-dihydro-2H-benzo[b][1,4]oxazin-7-yl)-6-(pyrazolo[1,5-a]pyrimidin-3-yl)-1H-pyrazolo[4,3-c]pyridine-3-carboxamide]
Second: COc1cc2c(cc1-n1nc(C(=O)NCCN3CCC4(CCOC4=O)CC3)c3cnc(-c4cnn5cccnc45)cc31)OCCN2 [Example 52, 1-(6-methoxy-3,4-dihydro-2H-benzo[b][1,4]oxazin-7-yl)-N-(2-(1-oxo-2-oxa-8-azaspiro[4.5]decan-8-yl)ethyl)-6-(pyrazolo[1,5-a]pyrimidin-3-yl)-1H-pyrazolo[4,3-c]pyridine-3-carboxamide]
The IC50 of the first is higher: 5.01 to 50.1 nM for the first, less than 5.01 nM for the second. The second is the more potent here.

First: COc1cc2c(cc1-n1nc(C(=O)NCCN3CC[C@@H](C(N)=O)C3)c3cnc(-c4cnn5cccnc45)cc31)OCCN2 [Example 80, (R)-N-(2-(3-carbamoylpyrrolidin-1-yl)ethyl)-1-(6-methoxy-3,4-dihydro-2H-benzo[b][1,4]oxazin-7-yl)-6-(pyrazolo[1,5-a]pyrimidin-3-yl)-1H-pyrazolo[4,3-c]pyridine-3-carboxamide]
Second: COCC1CCN(CCNC(=O)c2nn(-c3cc4c(cc3OC)NCCO4)c3cc(-c4cnn5cccnc45)ncc23)CC1 [Example 47, 1-(6-methoxy-3,4-dihydro-2H-benzo[b][1,4]oxazin-7-yl)-N-(2-(4-(methoxymethyl)piperidin-1-yl)ethyl)-6-(pyrazolo[1,5-a]pyrimidin-3-yl)-1H-pyrazolo[4,3-c]pyridine-3-carboxamide]
The IC50 of the first is higher: 50.1 to 501 nM for the first, 5.01 to 50.1 nM for the second. The second is the more potent here.

`COc1cc2c(cc1-n1nc(C)c3cnc(-c4cnn5cccnc45)cc31)CCC(=O)N2` [Example 4, 7-methoxy-6-(3-methyl-6-(pyrazolo[1,5-a]pyrimidin-3-yl)-1H-pyrazolo[4,3-c]pyridin-1-yl)-3,4-dihydroquinolin-2(1H)-one] and `COc1cc2c(cc1-n1nc(C)c3cnc(-c4cnn5cccnc45)cc31)CCCC(=O)N2` [Example 3, 8-methoxy-7-(3-methyl-6-(pyrazolo[1,5-a]pyrimidin-3-yl)-1H-pyrazolo[4,3-c]pyridin-1-yl)-1,3,4,5-tetrahydro-2H-benzo[b]azepin-2-one] fall in the same range of IC50: 5.01 to 50.1 nM for the first, 5.01 to 50.1 nM for the second.

First: COc1cc2sncc2cc1-n1nc(NCCN2CCOCC2)c2cnc(-c3cnn4cccnc34)cc21 [Example 39, 1-(6-methoxybenzo[d]isothiazol-5-yl)-N-(2-morpholinoethyl)-6-(pyrazolo[1,5-a]pyrimidin-3-yl)-1H-pyrazolo[4,3-c]pyridin-3-amine]
Second: COc1cc2[nH]c(=O)oc2cc1-n1nc(NCCN2CCOCC2)c2cnc(-c3cnn4cccnc34)cc21 [Example 72, 5-methoxy-6-(3-((2-morpholinoethyl)amino)-6-(pyrazolo[1,5-a]pyrimidin-3-yl)-1H-pyrazolo[4,3-c]pyridin-1-yl)benzo[d]oxazol-2(3H)-one]
The IC50 of the first is lower: 5.01 to 50.1 nM for the first, 50.1 to 501 nM for the second. The first is the more potent here.

`COc1cc2c(cc1-n1nc(NC(=O)OCCNC3CCOC3=O)c3cnc(-c4cnn5cccnc45)cc31)OCCN2` (stereo not drawn) [Example 68, 2-((2-oxotetrahydrofuran-3-yl)amino)ethyl (1-(6-methoxy-3,4-dihydro-2H-benzo[b][1,4]oxazin-7-yl)-6-(pyrazolo[1,5-a]pyrimidin-3-yl)-1H-pyrazolo[4,3-c]pyridin-3-yl)carbamate] and `COc1cc2c(cc1-n1nc(NC(=O)OCCSC3CCOC3=O)c3cnc(-c4cnn5cccnc45)cc31)OCCN2` (stereo not drawn) [Example 67, 2-((2-oxotetrahydrofuran-3-yl)thio)ethyl (1-(6-methoxy-3,4-dihydro-2H-benzo[b][1,4]oxazin-7-yl)-6-(pyrazolo[1,5-a]pyrimidin-3-yl)-1H-pyrazolo[4,3-c]pyridin-3-yl)carbamate] fall in the same range of IC50: 5.01 to 50.1 nM for the first, 5.01 to 50.1 nM for the second.

`COc1cc2c(cc1-n1nc(NC(=O)OCCCN3CCOCC3)c3cnc(-c4cnn5cccnc45)cc31)OCCN2` [Example 61, 3-morpholinopropyl (1-(6-methoxy-3,4-dihydro-2H-benzo[b][1,4]oxazin-7-yl)-6-(pyrazolo[1,5-a]pyrimidin-3-yl)-1H-pyrazolo[4,3-c]pyridin-3-yl)carbamate] and `COc1cc2c(cc1-n1nc(NC(=O)OCCN3CCN(C)CC3)c3cnc(-c4cnn5cccnc45)cc31)OCCN2` [Example 63, 2-(4-methylpiperazin-1-yl)ethyl (1-(6-methoxy-3,4-dihydro-2H-benzo[b][1,4]oxazin-7-yl)-6-(pyrazolo[1,5-a]pyrimidin-3-yl)-1H-pyrazolo[4,3-c]pyridin-3-yl)carbamate] fall in the same range of IC50: 5.01 to 50.1 nM for the first, 5.01 to 50.1 nM for the second.

`COc1cc2c(cc1-n1nc(NC(=O)C3CCN(C)CC3)c3cnc(-c4cnn5cccnc45)cc31)OCCN2` [Example 84, N-(1-(6-methoxy-3,4-dihydro-2H-benzo[b][1,4]oxazin-7-yl)-6-(pyrazolo[1,5-a]pyrimidin-3-yl)-1H-pyrazolo[4,3-c]pyridin-3-yl)-1-methylpiperidine-4-carboxamide] and `CNc1nn(-c2cc3c(cc2OC)NCCO3)c2cc(-c3cnn4cccnc34)ncc12` [Example 55, 1-(6-methoxy-3,4-dihydro-2H-benzo[b][1,4]oxazin-7-yl)-N-methyl-6-(pyrazolo[1,5-a]pyrimidin-3-yl)-1H-pyrazolo[4,3-c]pyridin-3-amine] fall in the same range of IC50: 5.01 to 50.1 nM for the first, 5.01 to 50.1 nM for the second.

`COc1cc2c(cc1-n1nc(C)c3cnc(-c4cnn5cccnc45)cc31)OCCN2` [Example 40, 6-methoxy-7-(3-methyl-6-(pyrazolo[1,5-a]pyrimidin-3-yl)-1H-pyrazolo[4,3-c]pyridin-1-yl)-3,4-dihydro-2H-benzo[b][1,4]oxazine] and `COc1cc2c(cc1-n1nc(C)c3cnc(-c4cnn5cccnc45)cc31)OCCCN2` [Example 9, 7-methoxy-8-(3-methyl-6-(pyrazolo[1,5-a]pyrimidin-3-yl)-1H-pyrazolo[4,3-c]pyridin-1-yl)-2,3,4,5-tetrahydrobenzo[b][1,4]oxazepine] fall in the same range of IC50: 5.01 to 50.1 nM for the first, 5.01 to 50.1 nM for the second.

`COc1cc2c(cc1-n1nc(C)c3cnc(-c4cnn5cccnc45)cc31)CC(=O)N2` [Example 10, 6-methoxy-5-(3-methyl-6-(pyrazolo[1,5-a]pyrimidin-3-yl)-1H-pyrazolo[4,3-c]pyridin-1-yl)indolin-2-one] and `Cc1nn(-c2cc3c(cc2OC(F)F)NCCO3)c2cc(-c3cnn4cccnc34)ncc12` [Example 1, 6-(difluoromethoxy)-7-(3-methyl-6-(pyrazolo[1,5-a]pyrimidin-3-yl)-1H-pyrazolo[4,3-c]pyridin-1-yl)-3,4-dihydro-2H-benzo[b][1,4]oxazine] fall in the same range of IC50: 5.01 to 50.1 nM for the first, 5.01 to 50.1 nM for the second.

`COc1cc2c(cc1-n1nc(NC(=O)OCCN3CCCCC3)c3cnc(-c4cnn5cccnc45)cc31)SCCN2` [Example 31, 2-(piperidin-1-yl)ethyl (1-(6-methoxy-3,4-dihydro-2H-benzo[b][1,4]thiazin-7-yl)-6-(pyrazolo[1,5-a]pyrimidin-3-yl)-1H-pyrazolo[4,3-c]pyridin-3-yl)carbamate] and `COc1cc2c(cc1-n1nc(NC(=O)OCCCN3CCOC(=O)C3)c3cnc(-c4cnn5cccnc45)cc31)SCCN2` [Example 19, 3-(2-oxomorpholino)propyl (1-(6-methoxy-3,4-dihydro-2H-benzo[b][1,4]thiazin-7-yl)-6-(pyrazolo[1,5-a]pyrimidin-3-yl)-1H-pyrazolo[4,3-c]pyridin-3-yl)carbamate] fall in the same range of IC50: 5.01 to 50.1 nM for the first, 5.01 to 50.1 nM for the second.

`COc1cc2c(cc1-n1nc(C(=O)NC3CN(CC4CCOCC4)C3)c3cnc(-c4cnn5cccnc45)cc31)OCCN2` [Example 13] and `COc1cc2c(cc1-n1nc(C(=O)NC3CN(C)C3)c3cnc(-c4cnn5cccnc45)cc31)OCCN2` [Example 44, 1-(6-methoxy-3,4-dihydro-2H-benzo[b][1,4]oxazin-7-yl)-N-(1-methylazetidin-3-yl)-6-(pyrazolo[1,5-a]pyrimidin-3-yl)-1H-pyrazolo[4,3-c]pyridine-3-carboxamide] fall in the same range of IC50: 5.01 to 50.1 nM for the first, 5.01 to 50.1 nM for the second.

First: COc1cc2c(cc1-n1nc(NC(=O)OCCN(C)C)c3cnc(-c4cnn5cccnc45)cc31)SCCN2 [Example 28, 2-(dimethylamino)ethyl (1-(6-methoxy-3,4-dihydro-2H-benzo[b][1,4]thiazin-7-yl)-6-(pyrazolo[1,5-a]pyrimidin-3-yl)-1H-pyrazolo[4,3-c]pyridin-3-yl)carbamate]
Second: COc1cc2c(cc1-n1nc(NC(=O)OCCN(C)C)c3cnc(-c4cnn5cccnc45)cc31)OCCN2 [Example 57, 2-(dimethylamino)ethyl (1-(6-methoxy-3,4-dihydro-2H-benzo[b][1,4]oxazin-7-yl)-6-(pyrazolo[1,5-a]pyrimidin-3-yl)-1H-pyrazolo[4,3-c]pyridin-3-yl)carbamate]
The IC50 of the first is lower: less than 5.01 nM for the first, 5.01 to 50.1 nM for the second. The first is the more potent here.

`COc1cc2c(cc1-n1nc(C(=O)NCCN3CCC(C4(O)COC4)CC3)c3cnc(-c4cnn5cccnc45)cc31)OCCN2` [Example 85, N-(2-(4-(3-hydroxyoxetan-3-yl)piperidin-1-yl)ethyl)-1-(6-methoxy-3,4-dihydro-2H-benzo[b][1,4]oxazin-7-yl)-6-(pyrazolo[1,5-a]pyrimidin-3-yl)-1H-pyrazolo[4,3-c]pyridine-3-carboxamide] and `COc1cc2c(cc1-n1nc(C(=O)NCCCN(C)C)c3cnc(-c4cnc5cccnn45)cc31)OCCN2` [Example 73, N-(3-(dimethylamino)propyl)-6-(imidazo[1,2-b]pyridazin-3-yl)-1-(6-methoxy-3,4-dihydro-2H-benzo[b][1,4]oxazin-7-yl)-1H-pyrazolo[4,3-c]pyridine-3-carboxamide] fall in the same range of IC50: 5.01 to 50.1 nM for the first, 5.01 to 50.1 nM for the second.

For `COc1cc2c(cc1-n1nc(C(=O)NCCCN(C)C)c3cnc(Nc4ncc[nH]c4=O)cc31)OCCN2` [Example 75, N-(3-(dimethylamino)propyl)-1-(6-methoxy-3,4-dihydro-2H-benzo[b][1,4]oxazin-7-yl)-6-((3-oxo-3,4-dihydropyrazin-2-yl)amino)-1H-pyrazolo[4,3-c]pyridine-3-carboxamide], the IC50 was 50.1 to 501 nM.
